Read-outs that look alike come from different tables or passages of the source.
Experiments:
[1] = system: human gastric cancer cell strain MGC-803; experiment: MTT growth inhibition on MGC-803;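 note: adherent cells exposed to compound over a concentration gradient for 24, 48 and 72 h, MTT absorbance at 490 nm, inhibition relative to untreated control wells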
Method: (§2) By using an MTT method, a sample solution to be tested was added to a 96-well plate in which cancer cells were adherently grown. Culturing was performed for a certain period, and the growth inhibition effect of a compound on a human cancer cell strain for primary screening was measured to determine the anti-cancer activity of the compound.
(§3) Cell culture: A cell incubator was set to conditions of 37° C., 5% CO2, and a saturated humidity, cells were cultured under these conditions, and the cell medium was a DMEM complete medium, wherein 10% fetal bovine serum, 100 IU/mL penicillin, and 100 μg/mL streptomycin were comprised.
(§4) The single cell suspension was diluted to 5×10^3/100 μL after counting, inoculated on a 96-well cell culture plate (triplicate), and adherently cultured overnight;
(§5) After 24 h of adhesion, the complete medium was discarded, 100 μL-sample-solutions to be tested having different concentrations were sequentially added to the 96-well plate according to a concentration gradient, and incubations were continued for 24 h, 48 h, and 72 h;
(§6) The culture liquid was discarded, a 0.5 mg/mL MTT diluted working liquid was added, and incubation was performed for 4 h by placing in an incubator;
(§7) The culture liquid was discarded, 100 μL of DMSO was added, low-speed oscillation was performed for 10 min by placing on a shaker, and the spectrophotometric value of each well was measured at a wavelength of 490 nm by using a microplate reader. Statistical analysis was performed and tumor cell growth inhibition rate was calculated according to the equation: Growth inhibition rate=(OD value of control group−OD value of experimental group)/OD value of control group.
(§8) Culturing was performed for a certain period, the growth inhibition effect of a compound on 3 human cancer cell strains for primary screening was measured to determine the anti-cancer activity of the compound, and a growth inhibition curve was plotted.

[2] = system: human liver cancer cell strain HepG2; experiment: MTT growth inhibition on HepG2; format: cell-based;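 note: adherent cells in 96-well plates treated with a concentration series for 24, 48 or 72 h, MTT absorbance read at 490 nm, inhibition computed relative to untreated control wells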
Method: as §2, §3, §4, §5, §6, §7, §8

[3] = system: human cervical cancer Hela cell strains; experiment: MTT growth inhibition on Hela;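 note: compound exposure of 24, 48 or 72 h in DMEM with 10% fetal bovine serum, MTT absorbance read at 490 nm, inhibition calculated relative to control group OD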
Method: as §2, §3, §4, §5, §6, §7, §8

[4] = system: ascites hepatoma H22 induced solid tumor; experiment: In vivo tumor growth inhibition in mice bearing H22; set-up: species or system white Kunming mice; details: Table 6; low COM33 dosage group (50 mg/Kg), intraperitoneal injection
[5] = system: C-Myc, Ki-67, CylinD1, β-Catenin protein; experiment: Western blotting, protein expression in HepG2 cells; format: cell-based, human; details: sorafenib 4 μg/mL, high COM33 dosage 10.0 μg/mL, combination 4 μg/mL sorafenib+5.0 μg/mL COM33
Experimental: (§1) Method: Gel electrophoresis of protein samples. Gel formulation: All components were added to a small beaker according to a formulation of a separation gel, uniformly mixed with slightly shaking to prevent the generation of bubbles, quickly applied to a seam of a glass plate with a 1 mL pipette, and then blocked with double distilled water to prevent oxidation. After 30 min, the separation gel solidified, the double distilled water thereof was poured off, waster was suctioned with a filter paper, a 5% concentration gel was formulated, TEMED was finally loaded onto the glass plate, and a 1.0 mm comb was inserted into the concentration gel and placed at room temperature for 30 min. The comb was slightly, vertically, and carefully pulled up, various groups of 20 μL protein samples were pipetted with a microsyringe, an equal volume of a loading buffer and an equal volume of a loading buffer containing 3 μL of Marker were separately added to a loading well, an electrophoresis instrument was switched on after electrodes were plugged, gels were run at 75V for 30 min, and the voltage was changed to 120V and gels were run for 2 h when bromophenol blue reaches the separation gel. Membrane transfer: A PVDF membrane having a suitable size was cut according to the size of the gel, placed in a methanol solution for 1 min, lifted, and placed and soaked together with a well cut filter paper in a previously precooled membrane transfer buffer. A sponge pad, three layers of filter paper, a gel, three layers of filter paper, and a sponge pad, in this order from top to bottom, were placed in a membrane transfer tank, and a precooled membrane transfer buffer was then added. Several ice bags were placed circumferentially to prevent an excessively hot external environment, and electrodes were plugged and membrane transfer was performed at a constant current of […] for 2.5 hours. Blocking and incubation of antibodies: A transferred membrane was cut into desired bands, which were placed in a blocking solution of 5% skim milk powder, placed on a shaker, and shaken at room temperature at a low speed for 1 h. A primary antibody was diluted with the blocking solution, a corresponding antibody was pipetted and added to a zip lock bag, the PVDF membrane was then placed in the antibody dilution, bubbles in the zip lock bag were evacuated, and the zip lock bag was sealed and placed in a refrigerator at 4° C. overnight. The membrane was withdrawn from the zip lock bag on the second day, and placed in a clean dish. A TBST solution was added and washed 3 times on a low-speed shaker, 10 min for each time. […]

[6] = system: ascites hepatoma H22 induced solid tumor; experiment: In vivo tumor growth inhibition in mice bearing H22; set-up: species or system white Kunming mice; details: Table 6; high COM33 dosage group (100 g/Kg), intraperitoneal injection
From the text: 1. Tumor strain and animal for experiments: H22 liver cancer cell strain was provided by Teaching and Research Office, School of Basic Medical Sciences, Lanzhou University/Key Lab of Preclinical Study for New Drugs of Gansu Province, and was passage and preserved by periodically intraperitoneal inoculation. White Kunming mice (18.0-22.0 g) were provided by Lanzhou Veterinary Institute, Chinese Academy of Agriculture.
2. Establishment of tumor models and method of grouping: a third passage of mice which were well grown 7 d after intraperitoneal inoculation of H22 tumor cells were sacrificed by cervical dislocation, and placed and soaked in 75% alcohol for 10 min. After 3 mL of sterile physiological saline was intraperitoneally injected, milky tumor cell ascites was withdrawn from the abdominal cavity, and formulated into a tumor cell suspension with sterile physiological saline, with a cell number of 1.5×10^7 mL^−1. 80 white Kunming mice were taken, and 0.2 mL of the tumor cell suspension was subcutaneously inoculated to the left axilla of each mouse. 24 h after the inoculation of tumor cells, the mice were divided into 8 groups according to body weights, 10 mice for each group. […] All of the administration manners were intraperitoneal administration.
3. Result of experiments: On the second day of modeling, continuous administration was performed for 10 d. Administration was stopped on the 11th d, and mice were sacrificed by cervical dislocation on the next day.
Test method: For the test method, see Example 24. Results can be seen in FIG. 15, FIG. 16, and Table 5.
Method: Modeling was performed by using the method of establishing H22 white mice tumor-bearing model of Example 24. The in vivo tumor growth inhibition activity of COM33 on H22 model mice was measured in an intraperitoneal injection administration manner.

[7] = system: Vimentin; experiment: Western blotting, Vimentin expression in HepG2 cells; format: cell-based, human; details: COM33 experiment (FIG. 17), combination compared to the sorafenib group
Experimental: as §1

[8] = Homo sapiens, MGC-803, read-out: IC50 MGC-803
[9] = Homo sapiens, HepG2, read-out: IC50 HepG2
[10] = Homo sapiens, HeLa, read-out: IC50 HeLa
[11] = Homo sapiens, MGC-803, read-out: IC50 MGC-803, Table 1, MTT
[12] = Homo sapiens, HepG2, Table 1, MTT, read-out: IC50 HepG2
[13] = Homo sapiens, HeLa, read-out: IC50 HeLa, Table 1, MTT

SMILES	IC50 [1, 11]	IC50 [2, 12]	IC50 [3, 13]	IC50 [1, 8]	IC50 [3, 10]	also measured
COc1cc(NC(=O)Nc2ccc(F)cc2)c2c(c1OC(=O)Nc1ccc(F)cc1)-c1c(OC)c(OC)cc3c1C(C2)N(C)CC3 (stereo not shown) [Compound 10]				25.1 µM	26.8 µM	IC50 [2, 9]: 26.7 µM
COC1=CC(=O)c2cc3c4c(cc(OC)c(OC)c4c2C1=O)CCN3C [TICD, isocorydione, reference compound]						IC50 ([1]; read-out: IC50 MGC-803, Table 2, MTT): 49.6 µM; IC50 ([2]; Table 2, MTT, read-out: IC50 HepG2): 40 µM; IC50 ([3]; read-out: IC50 Hela, Table 2, MTT): 31.3 µM
COc1cc(NC(=O)Nc2ccccc2Cl)c2c(c1OC(=O)Nc1ccccc1Cl)-c1c(OC)c(OC)cc3c1C(C2)N(C)CC3 (stereo not shown) [Compound 6]				26.9 µM	27.1 µM	IC50 [2, 9]: 17.2 µM
COc1cc(NC(=O)Nc2ccc(Cl)c(Cl)c2)c2c(c1O)-c1c(OC)c(OC)cc3c1C(C2)N(C)CC3 (stereo not shown) [Compound 2, 8-(N-(3′,4′-dichloro-phenyl))-ureido-isocorydine]		28.4 µM		30 µM	21.7 µM	
COc1cc(NC(=O)Nc2ccc(C)cc2)c2c(c1OC(=O)Nc1ccc(C)cc1)-c1c(OC)c(OC)cc3c1C(C2)N(C)CC3 (stereo not shown) [Compound 3]				25.6 µM	19.1 µM	IC50 [2, 9]: 16.1 µM
COc1cc(NC(=O)Nc2ccccc2C)c2c(c1OC(=O)Nc1ccccc1C)-c1c(OC)c(OC)cc3c1C(C2)N(C)CC3 (stereo not shown) [Compound 7]				22.8 µM	43.9 µM	IC50 [2, 9]: 31.4 µM
COc1cc(NC(=O)Nc2ccc(N3CCC(CN)CC3)c(C(F)(F)F)c2)c2c(c1O)-c1c(OC)c(OC)cc3c1[C@H](C2)N(C)CC3 [Compound 17]	< 10 µM	< 10 µM	< 10 µM			IC50 ([1]; Homo sapiens, MGC-803, read-out: IC50 MGC-803, Table 2, MTT): 11.1 µM; IC50 ([2]; Homo sapiens, HepG2, Table 2, MTT, read-out: IC50 HepG2): 7.51 µM; Tumor inhibition rate (%) [4]: 27.2%; expressions of C-Myc, Ki-67, CylinD1 and β-Catenin protein compared to the blank control group [5]: significantly reduced; Tumor inhibition rate (%) [6]: 73.8%; IC50 ([3]; Homo sapiens, HeLa, read-out: IC50 Hela, Table 2, MTT): 6.32 µM; Vimentin expression [7]: expressed in all groups
COc1cc(NC(=O)c2cccnc2)c2c(c1O)-c1c(OC)c(OC)cc3c1C(C2)N(C)CC3 (stereo not shown) [Compound 14, 8-N-nicotinamido-isocorydine]	34.7 µM	69.8 µM	49.6 µM			
COc1cc(NC(=O)Nc2ccc(N3CCC(NC(=O)OC(C)(C)C)CC3)c(C(F)(F)F)c2)c2c(c1O)-c1c(OC)c(OC)cc3c1C(C2)N(C)CC3 (stereo not shown) [Compound 19, 8-N-[3′-trifluoromethyl-4′-(4″-aminoformic acid tert-butyl ester-piperidine)-phenyl]-ureido isocorydine]	28.7 µM	25.9 µM	26.7 µM			
COc1cc(NC(=O)Nc2ccccc2)c2c(c1O)-c1c(OC)c(OC)cc3c1C(C2)N(C)CC3 (stereo not shown) [Compound 15, 8-N-(phenyl)-ureido-isocorydine]		75.4 µM		56.6 µM	62.1 µM	
COc1cc(NC(=O)Nc2ccc(C(F)(F)F)cc2)c2c(c1OC(=O)Nc1ccc(C(F)(F)F)cc1)-c1c(OC)c(OC)cc3c1C(C2)N(C)CC3 (stereo not shown) [Compound 9]				39.3 µM	47.7 µM	IC50 [2, 9]: 44.1 µM

Now from value to compound, other results behind:

IC50 [1, 11]	IC50 [2, 12]	IC50 [3, 13]	SMILES	IC50 [1, 8]	IC50 [3, 10]	also measured
23.2 µM	18.9 µM	22.1 µM	COc1cc(NC(=O)Nc2ccc(N3CCC(CNC(=O)OC(C)(C)C)CC3)c(C(F)(F)F)c2)c2c(c1O)-c1c(OC)c(OC)cc3c1C(C2)N(C)CC3 (stereo not shown) [Compound 16, 8-[3-trifluoromethyl-4-(4-methylaminoformic acid tert-butyl ester)piperidine]benzoylureido isocorydine]			
35.2 µM	36.7 µM	36.9 µM	COc1cc(NC(=O)Nc2ccccc2Cl)c2c(c1O)-c1c(OC)c(OC)cc3c1C(C2)N(C)CC3 (stereo not shown) [Compound 5, 8-(N-(2′-dichloro-phenyl))ureido-isocorydine]			
27.2 µM	30.2 µM	29.6 µM	COc1cc(NC(=O)c2cc(Cc3n[nH]c(=O)c4ccccc34)ccc2F)c2c(c1O)-c1c(OC)c(OC)cc3c1C(C2)N(C)CC3 (stereo not shown) [Compound 13, 8-N-[2-fluoro-5-(4-oxo-3,4-dihydrophthalazin-1-yl)methyl]benzamido isocorydine]			
57.3 µM	45.9 µM	49 µM	COc1cc(NC(=O)Nc2ccc(C(F)(F)F)cc2)c2c(c1O)-c1c(OC)c(OC)cc3c1C(C2)N(C)CC3 (stereo not shown) [Compound 8, 8-(N-(4′-trifluoromethyl-phenyl))-ureido-isocorydine]			
21.9 µM	21.5 µM	16.6 µM	COc1cc(NC(=O)c2ccc(Cl)c(C(F)(F)F)c2)c2c(c1O)-c1c(OC)c(OC)cc3c1C(C2)N(C)CC3 (stereo not shown) [Compound 11, 8-N-(3′-trifluoromethyl-4′-chloro-benzoyl)-isocorydine]			
47.8 µM	53.2 µM	46.6 µM	COc1cc(NC(=O)Nc2ccc(SC)cc2)c2c(c1O)-c1c(OC)c(OC)cc3c1C(C2)N(C)CC3 (stereo not shown) [Compound 4, 8-(N-(4′-methylsulfide-phenyl))-ureido-isocorydine]			
22.3 µM	18.6 µM	13.7 µM	COc1cc(NC(=O)Nc2ccc(N3CCC(N)CC3)c(C(F)(F)F)c2)c2c(c1O)-c1c(OC)c(OC)cc3c1C(C2)N(C)CC3 (stereo not shown) [Compound 20, 8-(N-(3′-trifluoromethyl-4′-(4″-amino-piperidine)-phenyl))-ureido-isocorydine]			
37.9 µM	63.4 µM	74.5 µM	COc1cc(NC(=O)/C=C/c2ccccc2)c2c(c1O)-c1c(OC)c(OC)cc3c1C(C2)N(C)CC3 (stereo not drawn) [Compound 12, 8-N-trans-cinnamoyl-isocorydine]			
10.4 µM	10.7 µM	12.5 µM	CCC(=O)NCC1CCN(c2ccc(NC(=O)Nc3cc(OC)c(O)c4c3CC3c5c(cc(OC)c(OC)c5-4)CCN3C)cc2C(F)(F)F)CC1 (stereo not shown) [Compound 18, 8-[3-trifluoromethyl-4-(4-methylaminoformic acid propyl ester)-piperidine]benzoylureido isocorydine]			

Source: patent US10519132B2, “Isocorydine derivatives, preparation method and use thereof” (Lanzhou Institute of Chemical Physics, Chinese Academy of …, priority 2017, dated 2019)
